The target in test [1] is T1, human V1a receptor (Homo sapiens, UniProt P37288).
T1 construct: expressed in transfected cells; host or cells: CHO K1 (ATCC), also stably transfected with a modified aequorin
Kind of test: Cellular in vitro assay for determining vasopressin receptor activity, V1a receptor cell line (CHO, aequorin luminescence). It counts as cell-based. To be noted: for pIC50: CHO cell line transfected with human V1a receptor, [Arg]-vasopressin at EC50 concentration, read-out: IC50 hV1a; for ratio IC50 hV2/hV1a: selectivity ratio IC50 hV2 / IC50 hV1a. A digest of the protocol: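 Luminescence from reconstituted aequorin, reporting intracellular calcium release, was measured immediately after adding [Arg]-vasopressin at EC50 concentration to CHO K1 cells pretreated 10 minutes with graded compound concentrations. Inhibition gave IC50 values.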

The target of test [2] is T2, human V2 receptor (Homo sapiens, UniProt P30518).
T2 construct: expressed in transfected cells; host or cells: CHO K1 (ATCC) expressing firefly luciferase under a CRE-responsive promoter
T2 sequence (P30518 whole entry): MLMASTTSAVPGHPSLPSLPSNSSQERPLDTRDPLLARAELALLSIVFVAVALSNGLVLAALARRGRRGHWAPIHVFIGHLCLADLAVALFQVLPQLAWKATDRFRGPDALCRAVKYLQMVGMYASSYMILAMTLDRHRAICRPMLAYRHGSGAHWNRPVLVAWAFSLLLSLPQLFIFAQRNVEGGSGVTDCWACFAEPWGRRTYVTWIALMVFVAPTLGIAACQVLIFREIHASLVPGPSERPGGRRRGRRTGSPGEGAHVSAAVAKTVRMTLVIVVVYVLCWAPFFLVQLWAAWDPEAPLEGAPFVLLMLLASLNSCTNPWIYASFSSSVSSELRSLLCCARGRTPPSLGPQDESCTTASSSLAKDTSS
Nature of the test: Cellular in vitro assay for determining vasopressin receptor activity, V2 receptor cell line (CHO, CRE-luciferase). To be noted: CHO cell line transfected with human V2 receptor; [Arg8]-vasopressin at EC50 concentration; read-out: IC50 hV2. The test is classed as cell-based.

The results in this text go back to patent publication US11173151B2, “Substituted triazole derivatives and uses thereof” (BAYER AKTIENGESELLSCHAFT, priority 2017, dated 2021).

pIC50: −log10 of the molar value.

T1 sequence (P37288 whole entry): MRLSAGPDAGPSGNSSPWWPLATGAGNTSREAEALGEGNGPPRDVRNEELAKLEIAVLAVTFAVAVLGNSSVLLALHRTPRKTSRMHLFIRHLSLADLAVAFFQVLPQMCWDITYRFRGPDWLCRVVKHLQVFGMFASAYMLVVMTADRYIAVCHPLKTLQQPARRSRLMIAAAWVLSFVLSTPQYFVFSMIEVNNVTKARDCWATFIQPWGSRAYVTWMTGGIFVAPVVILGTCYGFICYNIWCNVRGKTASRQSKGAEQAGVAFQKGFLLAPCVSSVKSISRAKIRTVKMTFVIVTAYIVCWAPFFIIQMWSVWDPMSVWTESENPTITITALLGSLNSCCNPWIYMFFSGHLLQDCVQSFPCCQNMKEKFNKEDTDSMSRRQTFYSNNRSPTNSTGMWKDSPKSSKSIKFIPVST

For `O=C(NCCC(F)(F)F)c1ccncc1-n1nc(Cn2nc(-c3ccc(Cl)cc3)n(C[C@H](O)C(F)(F)F)c2=O)nc1C(=O)N1CCS(=O)(=O)CC1` [Example 519, 3-{3-({3-(4-Chlorophenyl)-5-oxo-4-[(2S)-3,3,3-trifluoro-2-hydroxypropyl]-4,5-dihydro-1H-1,2,4-triazol-1-yl}methyl)-5-[(1,1-dioxidothiomorpholin-4-yl)carbonyl]-1H-1,2,4-triazol-1-yl}-N-(3,3,3-trifluoropropyl)pyridine-4-carboxamide], in test [1], the pIC50 (as a rule, the IC50 on a negative log10 scale, so that one unit is a factor of ten) is 5.87 and the “ratio IC50 hV2/hV1a” value was found to be 0.7. In addition, in test [2], the pIC50 was 6.03.
For `O=C(NC1CC1)c1ccncc1-n1nc(Cn2nc(-c3ccc(Cl)cc3)n(C[C@H](O)C(F)(F)F)c2=O)nc1C(=O)N1CCS(=O)(=O)CC1` [Example 520, 3-{3-({3-(4-Chlorophenyl)-5-oxo-4-[(2S)-3,3,3-trifluoro-2-hydroxypropyl]-4,5-dihydro-1H-1,2,4-triazol-1-yl}methyl)-5-[(1,1-dioxidothiomorpholin-4-yl)carbonyl]-1H-1,2,4-triazol-1-yl}-N-cyclopropylpyridine-4-carboxamide], in test [1], the pIC50 is 6.53 and the “ratio IC50 hV2/hV1a” value came to 2.3. Besides, the negative logarithm of the IC50 (pIC50) in test [2] was 6.18.
For `CC1(NC(=O)c2ccncc2-n2nc(Cn3nc(-c4ccc(Cl)cc4)n(C[C@H](O)C(F)(F)F)c3=O)nc2C(=O)N2CCS(=O)(=O)CC2)CC1` [Example 521, 3-{3-({3-(4-Chlorophenyl)-5-oxo-4-[(2S)-3,3,3-trifluoro-2-hydroxypropyl]-4,5-dihydro-1H-1,2,4-triazol-1-yl}methyl)-5-[(1,1-dioxidothiomorpholin-4-yl)carbonyl]-1H-1,2,4-triazol-1-yl}-N-(1-methylcyclopropyl)pyridine-4-carboxamide] the same measures were 5.20, 0.1 and 6.05.
For `O=C1CN(C(=O)c2nc(Cn3nc(-c4ccc(Cl)cc4)n(C[C@H](O)C(F)(F)F)c3=O)nn2-c2ncccc2C(=O)NCC(F)(F)F)CCN1` [Example 524, 2-{3-({3-(4-Chlorophenyl)-5-oxo-4-[(2S)-3,3,3-trifluoro-2-hydroxypropyl]-4,5-dihydro-1H-1,2,4-triazol-1-yl}methyl)-5-[(3-oxopiperazin-1-yl)carbonyl]-1H-1,2,4-triazol-1-yl}-N-(2,2,2-trifluoroethyl)pyridine-3-carboxamide] the same measures were 5.33, 0.7 and 5.46.
As to `CC1(NC(=O)c2cccnc2-n2nc(Cn3nc(-c4ccc(Cl)cc4)n(C[C@H](O)C(F)(F)F)c3=O)nc2C(=O)N2CCNC(=O)C2)CC1` [Example 525, 2-{3-({3-(4-Chlorophenyl)-5-oxo-4-[(2S)-3,3,3-trifluoro-2-hydroxypropyl]-4,5-dihydro-1H-1,2,4-triazol-1-yl}methyl)-5-[(3-oxopiperazin-1-yl)carbonyl]-1H-1,2,4-triazol-1-yl}-N-(1-methylcyclopropyl)pyridine-3-carboxamide], in test [1], the pIC50 is 5.03 and the “ratio IC50 hV2/hV1a” value turned out to be 0.7. Further, the pIC50 in test [2] is 5.18.
For `O=C(NCC(F)(F)F)c1cccnc1-n1nc(Cn2nc(-c3ccc(Cl)cc3)n(C[C@H](O)C(F)(F)F)c2=O)nc1C(=O)N1CCS(=O)(=O)CC1` [Example 528, 2-{3-({3-(4-Chlorophenyl)-5-oxo-4-[(2S)-3,3,3-trifluoro-2-hydroxypropyl]-4,5-dihydro-1H-1,2,4-triazol-1-yl}methyl)-5-[(1,1-dioxidothiomorpholin-4-yl)carbonyl]-1H-1,2,4-triazol-1-yl}-N-(2,2,2-trifluoroethyl)pyridine-3-carboxamide] the same measures were 7.12, 10.3 and 6.11.
For `O=C(NCCC(F)(F)F)c1cccnc1-n1nc(Cn2nc(-c3ccc(Cl)cc3)n(C[C@H](O)C(F)(F)F)c2=O)nc1C(=O)N1CCS(=O)(=O)CC1` [Example 529, 2-{3-({3-(4-Chlorophenyl)-5-oxo-4-[(2S)-3,3,3-trifluoro-2-hydroxypropyl]-4,5-dihydro-1H-1,2,4-triazol-1-yl}methyl)-5-[(1,1-dioxidothiomorpholin-4-yl)carbonyl]-1H-1,2,4-triazol-1-yl}-N-(3,3,3-trifluoropropyl)pyridine-3-carboxamide] the same measures were 7.01, 29.7 and 5.54.
For `O=C(NC1CC1)c1cccnc1-n1nc(Cn2nc(-c3ccc(Cl)cc3)n(C[C@H](O)C(F)(F)F)c2=O)nc1C(=O)N1CCS(=O)(=O)CC1` [Example 530, 2-{3-({3-(4-Chlorophenyl)-5-oxo-4-[(2S)-3,3,3-trifluoro-2-hydroxypropyl]-4,5-dihydro-1H-1,2,4-triazol-1-yl}methyl)-5-[(1,1-dioxidothiomorpholin-4-yl)carbonyl]-1H-1,2,4-triazol-1-yl}-N-cyclopropylpyridine-3-carboxamide] the same measures were 6.28, 9.9 and 5.28.
For `CC1(NC(=O)c2cccnc2-n2nc(Cn3nc(-c4ccc(Cl)cc4)n(C[C@H](O)C(F)(F)F)c3=O)nc2C(=O)N2CCS(=O)(=O)CC2)CC1` [Example 531, 2-{3-({3-(4-Chlorophenyl)-5-oxo-4-[(2S)-3,3,3-trifluoro-2-hydroxypropyl]-4,5-dihydro-1H-1,2,4-triazol-1-yl}methyl)-5-[(1,1-dioxidothiomorpholin-4-yl)carbonyl]-1H-1,2,4-triazol-1-yl}-N-(1-methylcyclopropyl)pyridine-3-carboxamide], in test [1], the negative logarithm of the IC50 (pIC50) was 7.02 and the “ratio IC50 hV2/hV1a” value is 29.5. Also, in test [2], the negative logarithm of the IC50 (pIC50) is 5.55.
For `CC(C)(N)CNC(=O)c1nc(Cn2nc(-c3ccc(Cl)cc3)n(C[C@H](O)C(F)(F)F)c2=O)nn1-c1cnccc1C(=O)NCC(F)(F)F` [Example 534, 3-{5-[(2-Amino-2-methylpropyl)carbamoyl]-3-({3-(4-chlorophenyl)-5-oxo-4-[(2S)-3,3,3-trifluoro-2-hydroxypropyl]-4,5-dihydro-1H-1,2,4-triazol-1-yl}methyl)-1H-1,2,4-triazol-1-yl}-N-(2,2,2-trifluoroethyl)pyridine-4-carboxamide] the same measures were 6.74, 20.1 and 5.44.
